pKi: −log10 of the molar value. Values belong to the compound of their own block, whether it stands above or below them. The source made the active and inactive calls. No cut-off for these calls is given here.
Assays:
Carbonic anhydrase 9 = Carbonic anhydrase 9 (Homo sapiens, UniProt Q16790)
SW-620 = assay: Cytotoxicity against human SW620 cells at 10 uM; type: functional
A549 = assay: Cytotoxicity against human A549 cells at 10 uM; type: functional
SNB-75 = assay: Cytotoxicity against human SNB75 cells at 10 uM; type: functional; conditions: read-out: GI
NCI/ADR-RES = assay: (§1) Cytotoxicity against human NCI-ADR-RES cells at 10 uM; type: functional
SK-MEL-2 = assay: Cytotoxicity against human SK-MEL-2 cells at 10 uM; type: functional
A498 = assay: Cytotoxicity against human A498 cells at 10 uM; type: functional
NCI-H460 = assay: Cytotoxicity against human NCI-H460 cells at 10 uM; type: functional
UACC-62 = assay: Cytotoxicity against human UACC62 cells at 10 uM; type: functional; conditions: read-out: GI
PC-3 = assay: Cytotoxicity against human PC3 cells at 10 uM; type: functional
HOP-92 = assay: Cytotoxicity against human HOP92 cells at 10 uM; type: functional; conditions: read-out: GI
LOX IMVI = assay: Cytotoxicity against human LOXIMVI cells at 10 uM; type: functional; conditions: read-out: GI
KM12 = assay: Cytotoxicity against human KM12 cells at 10 uM; type: functional
[1] = Cytotoxicity against human Hs 578T cells at 10 uM; type: functional; conditions: read-out: GI
T47D = assay: Cytotoxicity against human T47D cells at 10 uM; type: functional; conditions: read-out: GI
DU-145 = assay: Cytotoxicity against human DU145 cells at 10 uM; type: functional
SF-268 = assay: Cytotoxicity against human SF268 cells at 10 uM; type: functional; conditions: read-out: GI
HT-29 = assay: Cytotoxicity against human HT-29 cells at 10 uM; type: functional
MCF7 = assay: Cytotoxicity against human MCF7 cells at 10 uM; type: functional
OVCAR-3 = assay: Cytotoxicity against human OVCAR3 cells at 10 uM; type: functional
[2] = as §1; type: functional; conditions: read-out: GI
SR = assay: Cytotoxicity against human SR cells at 10 uM; type: functional; conditions: read-out: GI
MOLT-4 = assay: Cytotoxicity against human MOLT4 cells at 10 uM; type: functional; conditions: read-out: GI
MDA-MB-468 = assay: Cytotoxicity against human MDA-MB-468 cells at 10 uM; type: functional; conditions: read-out: GI
RPMI-8226 = assay: Cytotoxicity against human RPMI8226 cells at 10 uM; type: functional; conditions: read-out: GI

pKi (Carbonic anhydrase 9): 8.03
SMILES: Cc1cc(S(=O)(=O)NC(=N)Nc2nnc(S(N)(=O)=O)s2)c(SCc2cccc3ccccc23)cc1Cl
inhibition of growth at 10 µM (SW-620; read-out: GI): 8%
growth inhibition (GI) (A549): inactive
inhibition of growth at 10 µM (SNB-75): 11%
growth inhibition (GI) (NCI/ADR-RES): inactive
growth inhibition (GI) (SK-MEL-2): inactive
inhibition of growth at 10 µM (A498; read-out: GI): 48%
inhibition of growth at 10 µM (NCI-H460; read-out: GI): 3%
inhibition of growth at 10 µM (UACC-62): 2%
growth inhibition (GI) (PC-3): inactive
inhibition of growth at 10 µM (HOP-92): 3%
inhibition of growth at 10 µM (LOX IMVI): 2%
growth inhibition (GI) (KM12): inactive
inhibition of growth at 10 µM [1]: 15%
inhibition of growth at 10 µM (T47D): 17%
growth inhibition (GI) (DU-145): inactive
inhibition of growth at 10 µM (SF-268): 4%
growth inhibition (GI) (HT-29): inactive
growth inhibition (GI) (MCF7): inactive
growth inhibition (GI) (OVCAR-3): inactive

pKi (Carbonic anhydrase 9): 7.68
SMILES: Cc1cc(S(=O)(=O)NC(=N)NNc2ccc(S(N)(=O)=O)cc2)c(SCc2cccc(C(F)(F)F)c2)cc1Cl

pKi (Carbonic anhydrase 9): 7.99
SMILES: Cc1cc(S(=O)(=O)NC(=N)Nc2nnc(S(N)(=O)=O)s2)c(SCc2ccc(C(F)(F)F)cc2)cc1Cl

SMILES: Cc1cc(S(=O)(=O)NC(=N)Nc2ccc(S(N)(=O)=O)cc2)c(SCc2cc3c(cc2Cl)OCO3)cc1Cl
growth inhibition (GI) (SW-620): inactive
inhibition of growth at 10 µM (A549; read-out: GI): 4%
inhibition of growth at 10 µM (SNB-75): 22%
inhibition of growth at 10 µM [2]: 1%
inhibition of growth at 10 µM (SK-MEL-2; read-out: GI): 9%
growth inhibition (GI) (A498): inactive
growth inhibition (GI) (NCI-H460): inactive
inhibition of growth at 10 µM (UACC-62): 17%
inhibition of growth at 10 µM (PC-3; read-out: GI): 25%
inhibition of growth at 10 µM (SR): 25%
inhibition of growth at 10 µM (HOP-92): 29%
inhibition of growth at 10 µM (LOX IMVI): 8%
inhibition of growth at 10 µM (MOLT-4): 20%
inhibition of growth at 10 µM (KM12; read-out: GI): 8%
inhibition of growth at 10 µM [1]: 2%
inhibition of growth at 10 µM (T47D): 23%
growth inhibition (GI) (DU-145): inactive
inhibition of growth at 10 µM (SF-268): 5%
growth inhibition (GI) (HT-29): inactive
inhibition of growth at 10 µM (MDA-MB-468): 41%
inhibition of growth at 10 µM (MCF7; read-out: GI): 4%
inhibition of growth at 10 µM (RPMI-8226): 10%
inhibition of growth at 10 µM (OVCAR-3; read-out: GI): 12%

From ChEMBL document CHEMBL3102853, “Carbonic anhydrase inhibitors. Synthesis, and molecular structure of novel series N-substituted N'-(2-arylmethylthio-4-chloro-5-methylbenzenesulfonyl)guanidines and their inhibition of human cytosolic isozymes I and II and the transmembrane tumor-associated isozymes IX and XII” (Eur J Med Chem, 2014)
